In patent US20250034135A1, “ANTI-APOPTOTIC PROTEIN BCL-2 INHIBITOR, PHARMACEUTICAL COMPOSITION AND USES THEREOF” (HANGZHOU HEALZEN THERAPEUTICS CO., LTD., priority 2021, published 2025) one finds IC50 data, which are given here for five compounds.

One experiment concerns the target BCL2 (Homo sapiens (Human), UniProt P10415). The experiment is described as follows: Molecular level activity test of anti-apoptotic protein BCL2 (HTRF, binding to Bim peptide). The following applies: HTRF, binding of BCL2 to Bim peptide; read-out: BCL2 nM (inhibitory activity, IC50). In outline: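 Disruption of the BCL2/Bim peptide interaction is detected by homogeneous time-resolved fluorescence, using anti-His and streptavidin-XL665 reagents against His-tagged protein and biotin-tagged peptide. Compound exposure lasts 1 h before reagent addition; plates then sit 4 h at room temperature.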

The next experiment concerns the target BCL2 (G101V) (Homo sapiens (Human), UniProt P10415, G101V). The experiment is described as follows: Molecular level activity test of anti-apoptotic protein BCL2 (G101V) (HTRF, binding to Bim peptide). The following applies: inhibition of BCL2 (G101V) binding to Bim peptide, read-out: BCL-2 (G101V). An outline of the steps: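 His-tagged recombinant BCL2 (G101V) incubated 1 h with biotin-BIM peptide and compound (2% DMSO), then anti-His and streptavidin-XL665 detection reagents added for 4 h at room temperature. HTRF signal reflects compound effect on BCL2–BIM binding.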
A general note: TR-FRET usually uses a lanthanide donor and a delayed reading to cut background.

The target of another experiment is BCL2 (D103Y) (Homo sapiens (Human), UniProt P10415, D103Y). Kind of experiment: Molecular level activity test of BCL2 (D103Y) (HTRF, binding to Bim peptide). The following applies: read-out: BCL-2 (D103Y) (nM) (inhibitory activity, IC50). As for the experimental part: The detection of the binding ability between anti-apoptotic protein BCL2 (D103Y) and pro-apoptotic protein Bim was performed using Homogeneous Time-Resolved Fluorescence technology. The reaction of this method occurred in a white shallow 384-well plate, with a total reaction volume of 10 μL. Specifically, it included 2 μL of the compound to be tested (2% DMSO), 4 μL His-tagged recombinant protein, and 4 μL Biotin-tagged BIM protein peptide. After 1 hour of reaction, 5 μL of each Anti-His and streptavidin-tagged XL665 antibody diluents diluted with a detection buffer were added. After incubating at room temperature for 4 hours, the values were read using the Envision multifunctional microplate reader to detect the effect of the compound to be tested on the binding ability of BCL2 (D103Y) to BIM protein peptides.

For another experiment, the system named is RS4; 11 cells. Kind of experiment: Tumor proliferation inhibitory activity test (MTS) on RS4; 11. The experiment is classed as cell-based. To be noted: Homo sapiens, RS4-11, 72 h, 3 days incubation. As for the experimental part:
The cell proliferation inhibitory ability of the compounds on RS4; 11 was tested using the MTS method. MTS is a tetrazolium blue salt compound that can be reduced by various dehydrogenases in live cell mitochondria to their respective colored methylzan products. Its color depth is highly correlated with the number of live cells in certain sensitive cell lines within a certain range. RS4; 11, RS4; 11 (BCL-2-G101V) and MOLT-4 tumor cells were cultivated separately and collected, 180 μL of cell suspension was added to each well in a 96-well cell plate, 20 μL of DMSO with a final concentration of 0.2% was added to the control cell wells, 20 μL of gradient diluted compounds were added to cell wells, and the treated cells were incubated in a 5% CO2 incubator at 37° C. for 3 days. After the incubation was completed, the reaction solution was prepared according to the MTS reagent kit, 20 μL was added per well and incubated in a 5% CO2 incubator at 37° C. for 3-4 hours. The absorbance value at 490 nm was read using an enzyme-linked immunosorbent assay (ELISA) plate, and the absorbance value at 690 nm was used as the background value, with OD490 nm-OD690 nm as the final raw data. The formula for calculating the inhibition ratio of compounds was as follows: inhibition ratio=(ODDMSO−ODCompound)/(ODDMSO−ODblank)×100%.

Another experiment concerns the target BCL-XL (Homo sapiens (Human), UniProt Q07817). The experiment is described as follows: BCL-XL enzyme molecular level activity test (HTRF, binding to BIM peptide). The following applies: binding of BCL-XL to BIM peptide, read-out: BCL-XL inhibitory activity (IC50). In outline:
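HTRF binding assay: His-tagged recombinant BCL-XL with biotin-BIM peptide and compound (2% DMSO), 1 h. Anti-His and streptavidin-XL665 detection reagents added, 4 h at room temperature. Excitation 320 nm; 665/615 nm ratio reflects binding, with no-protein background and no-compound full-binding controls.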

Each structure is given as a SMILES string. Like-named read-outs stand apart in the source and are kept apart here.

BCL-XL, sequence (Q07817 whole entry): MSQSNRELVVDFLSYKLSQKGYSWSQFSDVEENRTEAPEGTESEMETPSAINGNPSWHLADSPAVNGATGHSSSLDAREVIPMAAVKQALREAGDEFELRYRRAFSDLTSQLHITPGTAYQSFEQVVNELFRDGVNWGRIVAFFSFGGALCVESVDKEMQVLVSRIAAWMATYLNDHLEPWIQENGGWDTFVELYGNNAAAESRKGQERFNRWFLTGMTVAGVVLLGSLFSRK

`CC(C)c1ccccc1[C@@H]1CN(Cc2cnn(C)c2)CCN1C1CC2(CCN(c3cc(Oc4cnc5[nH]cc(F)c5c4)c(C(=O)NS(=O)(=O)c4ccc(NCC5(F)CCOCC5)c([N+](=O)[O-])c4)cc3F)CC2)C1` [compound 255, (R)-5-fluoro-2-((3-fluoro-1H-pyrrolo[2,3-b]pyrid-5-yl)oxy)-N-((4-(((4-fluorotetrahydro-2H-pyran-4-yl)methyl)amino)-3-nitrophenyl)sulfonyl)-4-(2-(2-(2-isopropylphenyl)-4-((1-methyl-1H-pyrazol-4-yl)methyl)piperazin-1-yl)-7-azaspiro[3.5]non-7-yl)benzamide]: the IC50 was less than 10 nM on BCL2; less than 10 nM at BCL2 (G101V); less than 10 nM at BCL2 (D103Y); 0.5 to 1 nM with RS4; 11 cells; greater than 500 nM at BCL-XL (values in nM).

With `COc1ccc(CN2CCN(C3CC4(CCN(c5cc(Oc6cnc7[nH]ccc7c6)c(C(=O)NS(=O)(=O)c6ccc(NCC7(F)CCOCC7)c([N+](=O)[O-])c6)cc5F)CC4)C3)[C@H](c3ccccc3C(C)C)C2)cc1CN(C)C` [compound 250, (R)-2-((1H-pyrrolo[2,3-b]pyrid-5-yl)oxy)-4-(2-(4-(3-((dimethylamino)methyl)-4-methoxybenzyl)-2-(2-isopropylphenyl)piperazin-1-yl)-7-azaspiro[3.5]non-7-yl)-5-fluoro-N-((4-(((4-fluorotetrahydro-2H-pyran-4-yl)methyl)amino)-3-nitrophenyl)sulfonyl)benzamide], the IC50 at BCL2 was less than 10 nM; on BCL2 (G101V), less than 10 nM; at BCL2 (D103Y), less than 10 nM; with RS4; 11 cells, 0.5 to 1 nM; on BCL-XL (values in nM) it was greater than 500 nM.

For `CNCc1cc(CN2CCN(C3CC4(CCN(c5cc(Oc6cnc7[nH]ccc7c6)c(C(=O)NS(=O)(=O)c6ccc(NCC7(F)CCOCC7)c([N+](=O)[O-])c6)cc5F)CC4)C3)[C@H](c3ccccc3C(C)C)C2)ccc1OC` [compound 249, (R)-2-((1H-pyrrolo[2,3-b]pyrid-5-yl)oxy)-5-fluoro-N-((4-(((4-fluorotetrahydro-2H-pyran-4-yl)methyl)amino)-3-nitrophenyl)sulfonyl)-4-(2-(2-(2-isopropylphenyl)-4-(4-methoxy-3-((methylamino)methyl)benzyl)piperazin-1-yl)-7-azaspiro[3.5]non-7-yl)benzamide], the IC50 on BCL2 is less than 10 nM; on BCL2 (G101V), less than 10 nM; at BCL2 (D103Y), less than 10 nM; with RS4; 11 cells, 0.5 to 1 nM; on BCL-XL (values in nM), greater than 500 nM.

As to `COc1ccc(CN2CCN(C3CC4(CCN(c5cc(Oc6cnc7[nH]ccc7c6)c(C(=O)NS(=O)(=O)c6cc([N+](=O)[O-])c(NCC7CCOCC7)c7c6OCO7)cc5F)CC4)C3)[C@H](c3ccccc3C(C)C)C2)cc1` [compound 120, (R)-2-((1H-pyrrolo[2,3-b]pyrid-5-yl)oxy)-5-fluoro-4-(2-(2-(2-isopropylphenyl)-4-(4-methoxybenzyl)piperazin-1-yl)-7-azaspiro[3.5]non-7-yl)-N-((6-nitro-7-(((tetrahydro-2H-pyran-4-yl)methyl)amino)benzo[d][1,3]dioxocyclopent-4-yl)sulfonyl)benzamide], the IC50 was less than 10 nM on BCL2; less than 10 nM on BCL2 (G101V); less than 10 nM on BCL2 (D103Y); 0.5 to 1 nM in the experiment on RS4; 11 cells; 1600 nM at BCL-XL (values given in μM).

Turning to `CNCc1ccc(CN2CCN(C3CC4(CCN(c5cc(Oc6cnc7[nH]ccc7c6)c(C(=O)NS(=O)(=O)c6ccc(NCC7(F)CCOCC7)c([N+](=O)[O-])c6)cc5F)CC4)C3)[C@H](c3ccccc3C(C)C)C2)cc1` [compound 243, (R)-2-((1H-pyrrolo[2,3-b]pyrid-5-yl)oxy)-5-fluoro-N-((4-(((4-fluorotetrahydro-2H-pyran-4-yl)methyl)amino)-3-nitrophenyl)sulfonyl)-4-(2-(2-(2-isopropylphenyl)-4-(4-((methylamino)methyl)benzyl)piperazin-1-yl)-7-azaspiro[3.5]non-7-yl)benzamide], the IC50 was less than 10 nM on BCL2; less than 10 nM on BCL2 (G101V); less than 10 nM on BCL2 (D103Y); 0.5 to 1 nM with RS4; 11 cells; greater than 500 nM at BCL-XL (values in nM).
